In patent US9034877B2 (Wayne State University, priority 2009, dated 2015):
“Also recorded” adds a separate entry of the source. Blank lines part the entries; values can stand above or below the molecule they belong to.

Columns and labels:
[1] = molecular target: T1, hD3 receptor (Homo sapiens, UniProt P35462); assay: Stimulation of [35S]GTPγS binding, hD3 receptor expressed in CHO cells; assay type: biochemical
T1 construct: expressed in transfected cells; host or cells: CHO

[2] = tested on: reserpinized rats; assay: Reversal of reserpine-induced hypolocomotion in rats; assay type: in vivo, rat; details: 10 μMol/kg; for Reversal of reserpine-induced hypolocomotion (horizontal locomotor activity): (−)19b i.p., ropinirole s.c., 18 h after reserpine 5 mg/kg s.c., 6 h
Excerpt: Administration of reserpine induces catalepsy in rodents primarily by blocking the vesicular monoamine trasporter (VMAT) which helps in the internalization of monoamines into vesicles, resulting in metabolism of unprotected monoamines in the cytosol that ultimately causes depletion of monoamines in the synapse of the peripheral sympathetic nerve terminals. The ability of the compound (-)-19b to reverse the reserpine induced hypolocomotion was investigated. Ropinirole was used as standard reference compound in this study. Reserpine (5.0 mg/kg, s.c.) or saline (s.c.) were administered 18 h before the injection of drug or vehicle (i.p.). The rats were placed individually in chambers for 1 h for acclimatization purpose before the administration of the test drug, standard drug or vehicle. Immediately after administration of drug or vehicle, animals were individually placed in […] animal activity monitor chamber (45×30×20 cm) (AccuScan Instruments, Inc. Columbus, Ohio) to start measuring locomotor activity. Locomotion was monitored for 6 h. Consecutive interruption of two infrared beams situated 24 cm apart and 4 cm above the cage floor in the monitor chamber recorded movement. The data were presented as horizontal counts (HACTV). The effect of the individual doses of drugs on locomotor activity was compared with respect to saline treated controls (mean±S.E.M.). The data were analyzed by one way analysis of variance (ANOVA) followed by Dunnett's post-hoc test.

[3] = tested on: 6-OHDA lesioned rats; assay: Rotational experiment with 6-OHDA unilaterally lesioned rats; assay type: in vivo, rat
[4] = background statement; cited from earlier work

T1 sequence (P35462 whole entry): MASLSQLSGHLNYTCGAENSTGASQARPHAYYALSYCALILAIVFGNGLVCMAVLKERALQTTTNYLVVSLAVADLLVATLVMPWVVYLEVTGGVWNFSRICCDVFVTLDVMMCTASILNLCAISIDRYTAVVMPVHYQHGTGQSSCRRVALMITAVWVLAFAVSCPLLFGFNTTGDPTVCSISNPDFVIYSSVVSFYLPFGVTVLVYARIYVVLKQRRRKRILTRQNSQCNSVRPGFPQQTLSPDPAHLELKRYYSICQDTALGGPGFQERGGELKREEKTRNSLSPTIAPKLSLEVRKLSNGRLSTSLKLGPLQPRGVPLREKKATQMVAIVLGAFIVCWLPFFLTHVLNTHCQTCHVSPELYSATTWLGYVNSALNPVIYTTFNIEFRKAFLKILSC

Agonism at D3 compared with dopamine [1]: full or near-complete agonism
Structure (SMILES): CCCN(CCN1CCN(c2ccnc3c(O)cccc23)CC1)C1CCc2c(O)cccc2C1 (single isomer, unassigned; (-)) [Compound (−)19b, (−)-4-(4-(2-((5-hydroxy-1,2,3,4-tetrahydronaphthalen-2-yl) (propyl)amino)ethyl)piperazin-1-yl)quinolin-8-ol]
Reversal of reserpine-induced hypolocomotion (horizontal locomotor activity) [2]: highly efficacious; also recorded: significantly different | Rotational activity at the higher dose ([3]; 1 μMol/kg (0.61 mg/kg), 11 h): remained high at the termination of the experiments

Structure (SMILES): C#CCNCc1ccc(O)c2ncccc12 [Compound M30, 5-((prop-2-ynylamino)methyl)quinolin-8-ol]
Activity in animal experiments [4]: antioxidant and neuroprotective

Structure (SMILES): OCCN1CCN(Cc2ccc(O)c3ncccc23)CC1 [VK 28, 5-((4-(2-hydroxyethyl)piperazin-1-yl)methyl)quinolin-8-ol]
Activity in animal experiments [4]: antioxidant and neuroprotective

Structure (SMILES): CCCN(CCC)CCc1cccc2c1CC(=O)N2 [ropinirole, reference compound]
Agonism at D3 compared with dopamine [1]: full or near-complete agonism | Reversal of reserpine-induced hypolocomotion (horizontal locomotor activity) [2]: significantly different | Duration of action in reserpinized rats ([2]; compared with (−)19b): much shorter duration of action | Rotations and duration of action ([3]; 5 μMol/kg): much less rotations with shorter duration of action | Effect on rotations compared to vehicle (Dunnett) ([3]; (−)19b two doses i.p., ropinirole): significant
